Experiments:
[1] = target: T1, cloned human 5-HT1A receptors (Homo sapiens, UniProt P08908); assay: 35S-GTPγS binding assay, 5-HT1A antagonist activity; format: biochemical; conditions: reversal of the effects of standard agonist 8-OHDPAT on 35S-GTPγS binding; for IC50: membranes with cloned human 5-HT1A receptors, read-out: 5-HT1A Function IC50; for 5-HT1A Function Imax (maximum inhibitory effect): value in parentheses
T1 construct: expressed in transfected cells
T1 sequence (P08908 1-422): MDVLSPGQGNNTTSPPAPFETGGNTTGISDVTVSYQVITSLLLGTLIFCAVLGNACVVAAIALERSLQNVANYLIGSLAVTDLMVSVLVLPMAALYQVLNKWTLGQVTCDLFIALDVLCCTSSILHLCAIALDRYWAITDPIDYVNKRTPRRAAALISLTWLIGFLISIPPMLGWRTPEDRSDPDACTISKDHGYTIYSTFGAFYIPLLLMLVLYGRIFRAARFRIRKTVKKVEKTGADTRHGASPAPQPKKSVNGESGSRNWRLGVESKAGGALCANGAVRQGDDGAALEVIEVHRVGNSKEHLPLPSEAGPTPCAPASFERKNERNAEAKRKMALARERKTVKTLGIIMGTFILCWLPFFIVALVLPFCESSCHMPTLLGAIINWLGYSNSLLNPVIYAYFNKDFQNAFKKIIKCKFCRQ
Protocol: Antagonist activity at 5-HT1A receptors was established by using a ^35S-GTPγS binding assay similar to that used by Lazareno and Birdsall (Br. J. Pharmacol. 109: 1120, 1993), in which the test compound's ability to affect the binding of ^35S-GTPγS to membranes containing cloned human 5-HT1A receptors was determined. Agonists produce an increase in binding whereas antagonists produce no increase but rather reverse the effects of the standard agonist 8-OHDPAT. The test compound's maximum inhibitory effect is represented as the Imax, while its potency is defined by the IC50.

human 5-HT1A receptors = target: T2, human 5-HT1A receptors (Homo sapiens, UniProt P08908); assay: [3H] 8-OHDPAT displacement, 5-HT1A receptor affinity; format: binding
T2 construct: expressed in transfected cells; host or cells: CHO cells
T2 sequence (P08908 1-422): T1 sequence (P08908 1-422)
Text: High affinity for the serotonin 5-HT1A receptor was established by testing the claimed compound's ability to displace [^3H] 8-OHDPAT (dipropylamino-tetralin) from the 5-HT1A serotonin receptor following a modification of the procedure of Hall et al., J. Neurochem. 44, 1685 (1985) which utilizes CHO cells stably transfected with human 5-HT1A receptors.

serotonin transporter = target: T3, serotonin transporter (Rattus norvegicus, UniProt P31652); assay: 3H-paroxetine displacement, serotonin transporter affinity; format: binding
T3 construct: displace ^3H-paroxetine from male rat frontal cortical membranes; from tissue; host or cells: male rat frontal cortex membranes
T3 sequence (P31652 whole entry): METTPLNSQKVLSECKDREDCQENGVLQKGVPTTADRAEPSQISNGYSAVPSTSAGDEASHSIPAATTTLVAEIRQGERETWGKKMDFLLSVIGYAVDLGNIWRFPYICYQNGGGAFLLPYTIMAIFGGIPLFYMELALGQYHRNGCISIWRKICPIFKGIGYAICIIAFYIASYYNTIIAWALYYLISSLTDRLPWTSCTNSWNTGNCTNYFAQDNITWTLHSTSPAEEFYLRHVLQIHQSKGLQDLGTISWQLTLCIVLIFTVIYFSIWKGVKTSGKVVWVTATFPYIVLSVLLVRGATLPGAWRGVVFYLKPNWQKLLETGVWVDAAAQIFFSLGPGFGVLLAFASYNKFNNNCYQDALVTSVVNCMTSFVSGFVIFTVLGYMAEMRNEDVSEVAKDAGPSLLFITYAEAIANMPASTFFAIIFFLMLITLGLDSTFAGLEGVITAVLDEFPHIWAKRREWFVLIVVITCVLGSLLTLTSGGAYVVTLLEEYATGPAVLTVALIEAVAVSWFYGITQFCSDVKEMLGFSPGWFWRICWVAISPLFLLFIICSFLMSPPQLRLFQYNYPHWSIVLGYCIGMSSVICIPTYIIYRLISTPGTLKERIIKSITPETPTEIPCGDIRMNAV

SMILES	melting point [°C]	IC50 [1] [nM]	5-HT1A Function Imax (maximum inhibitory effect) [1]	Ki (human 5-HT1A receptors) [nM]	Ki (serotonin transporter) [nM]
Fc1ccc2[nH]cc(C3=CCN(CC4COc5ccc6ncncc6c5O4)CC3)c2c1 (stereo not drawn) (hydrate or solvate) [Example 1, 2-[(4-(5-Fluoro-1H-indol-3-yl)-3,6-dihydropyridin-1(2H)-yl)methyl]-2,3-dihydro[1,4]dioxino[2,3-f]quinazoline]	233 to 235				
C1=C(c2c[nH]c3ccccc23)CCN(CC2COc3ccc4ncncc4c3O2)C1 (stereo not drawn) (hydrate or solvate) [Example 2, 2-[(4-(1H-Indol-3-yl)-3,6-dihydropyridin-1(2H)-yl)methyl]-2,3-dihydro[1,4]dioxino[2,3-f]quinazoline]	204 to 207				
Cc1ncc2c3c(ccc2n1)OCC(CN1CC=C(c2c[nH]c4ccccc24)CC1)O3 (stereo not drawn) (hydrate or solvate) [Example 4, 2-[(4-(1H-Indol-3-yl)-3,6-dihydropyridin-1(2H)-yl)methyl]-8-methyl-2,3-dihydro[1,4]dioxino[2,3-f]quinazoline]	198 to 202				
Fc1ccc2[nH]cc(C3=CCN(CC4COc5ccc6ncncc6c5O4)CC3)c2c1 (stereo not drawn) [Example 1, 2-[(4-(5-Fluoro-1H-indol-3-yl)-3,6-dihydropyridin-1(2H)-yl)methyl]-2,3-dihydro[1,4]dioxino[2,3-f]quinazoline]		499	(94.0)	51.5	2.24
C1=C(c2c[nH]c3ccccc23)CCN(CC2COc3ccc4ncncc4c3O2)C1 (stereo not drawn) [Example 2, 2-[(4-(1H-Indol-3-yl)-3,6-dihydropyridin-1(2H)-yl)methyl]-2,3-dihydro[1,4]dioxino[2,3-f]quinazoline]		379	(100)	15	2.87
Cc1nc2ccc3c(c2c[n+]1[O-])OC(CN1CC=C(c2c[nH]c4ccccc24)CC1)CO3 (stereo not drawn) [Example 3, 2-[(4-(1H-Indol-3-yl)-3,6-dihydropyridin-1(2H)-yl)methyl]-8-methyl-2,3-dihydro[1,4]dioxino[2,3-f]quinazoline 9-oxide]		440	(94.0)	25.6	4.64
Cc1ncc2c3c(ccc2n1)OCC(CN1CC=C(c2c[nH]c4ccccc24)CC1)O3 (stereo not drawn) [Example 4, 2-[(4-(1H-Indol-3-yl)-3,6-dihydropyridin-1(2H)-yl)methyl]-8-methyl-2,3-dihydro[1,4]dioxino[2,3-f]quinazoline]		116	(100)	2.4	2.26
CCc1ncc2c3c(ccc2n1)OCC(CN1CC=C(c2c[nH]c4ccccc24)CC1)O3 (stereo not drawn) [Example 5, 2-[(4-(1H-Indol-3-yl)-3,6-dihydropyridin-1(2H)-yl)methyl]-8-ethyl-2,3-dihydro[1,4]dioxino[2,3-f]quinazoline]	203 to 211	209	(100)	8.27	4.25

Reference: patent US6656947B2, “Antidepressant azaheterocyclylmethyl derivatives of 2,3-dihydro-1,4-dioxino[2,3-f]quinazoline” (Wyeth, priority 2001, dated 2003)
